Test results published in US20130158075A1, “HETEROCYCLIC COMPOUNDS AS DGAT1 INHIBITORS” (PIRAMAL ENTERPRISES LIMITED, priority 2010, published 2013).
Counter-ions that a name gives are not always drawn.

Target: T1, hDGAT1 (Homo sapiens, UniProt O75907)
T1 construct: made in house; host or cells: Sf9 insect cells (baculovirus); microsomal fraction
T1 sequence (O75907 1-488): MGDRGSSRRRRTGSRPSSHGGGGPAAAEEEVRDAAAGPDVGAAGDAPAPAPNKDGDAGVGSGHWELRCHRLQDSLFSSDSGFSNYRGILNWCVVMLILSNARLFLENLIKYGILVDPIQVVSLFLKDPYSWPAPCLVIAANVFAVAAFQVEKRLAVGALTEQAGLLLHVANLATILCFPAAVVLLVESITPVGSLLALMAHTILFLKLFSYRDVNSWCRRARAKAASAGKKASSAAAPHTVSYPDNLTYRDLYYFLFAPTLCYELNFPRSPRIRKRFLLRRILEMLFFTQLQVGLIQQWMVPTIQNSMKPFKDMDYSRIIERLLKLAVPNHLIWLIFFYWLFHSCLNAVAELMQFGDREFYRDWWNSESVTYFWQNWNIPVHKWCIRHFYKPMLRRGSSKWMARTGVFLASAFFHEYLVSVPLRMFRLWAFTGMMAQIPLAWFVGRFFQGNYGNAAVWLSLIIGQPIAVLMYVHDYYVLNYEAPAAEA
Experiment: In-vitro DGAT1 assay with hDGAT1 microsomes from Sf9 cells (14C oleoyl CoA, scintillation counting)
Format: biochemical
Conditions: at 1 μM
In short: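 Radiolabelled triglyceride formation was measured: heptane extracts were scintillation-counted after a 10-min, 37 °C reaction stopped with alkaline ethanol. Enzyme was human DGAT1 in baculovirus-infected Sf9 microsomal membranes; substrates were 14C oleoyl-CoA plus dioleoylglycerol. Runs were duplicated, and inhibition (%) was related to nM compound concentration.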

Compound	Percentage inhibition of hDGAT1
CC(C)(CCc1ncc(-c2ccc(NC(=O)c3ccc(-c4ccccc4)cc3)cc2)s1)C(=O)O [Example 108, 4-(5-(4-Biphenyl-4-ylcarboxamidophenyl)thiazol-2-yl)-2,2-dimethylbutanoic acid]	++ (>50 % Inhibition)
CC(C)(CCc1ncc(-c2ccc(NC(=O)Nc3cc(F)cc(F)c3)cc2)s1)C(=O)[O-].[Na+] [Example 235A, Sodium salt of 4-(5-(4-(3-(3,5-difluorophenyl)ureido)phenyl)thiazol-2-yl)-2,2-dimethylbutanoate]	++ (>50 % Inhibition)

Same assay, conditions: read-out: Percentage inhibition of hDGAT1

inhibition at 1 µM [%]	Compound
> 50	CC(C)(O)C1CCC(c2ncc(-c3ccc(NC(=O)Nc4cc(F)c(F)cc4F)cc3)s2)CC1 (stereo not shown) [Example 585, 1-(4-(2-(4-(2-Hydroxypropan-2-yl)cyclohexyl)thiazol-5-yl)phenyl)-3-(2,4,5-trifluorophenyl)urea]
> 50	Cc1nnc(CC2CCC(c3ncc(-c4ccc(NC(=O)Nc5cc(F)cc(F)c5)cc4)s3)CC2)o1 (stereo not shown) [Example 381, 1-(3,5-Difluorophenyl)-3-(4-(2-(4-((5-methyl-1,3,4-oxadiazol-2-yl)methyl)cyclohexyl)thiazol-5-yl)phenyl)urea]
> 50	CC(C)(CCc1ncc(-c2ccc(NC(=O)Nc3cc(F)c(F)cc3F)cc2)s1)C(=O)NS(=O)(=O)C(F)(F)F [Example 582, 2,2-Dimethyl-N-((trifluoromethyl)sulfonyl)-4-(5-(4-(3-(2,4,5-trifluorophenyl)ureido)phenyl)thiazol-2-yl)butanamide]
20 to 50	NCCc1ncc(-c2ccc(NC(=O)Nc3cc(F)cc(F)c3)cc2)s1 [Example 574, 1-(4-(2-(2-Aminoethyl)thiazol-5-yl)phenyl)-3-(3,5-difluorophenyl)urea hydrochloride]
20 to 50	NCCc1ncc(-c2ccc(NC(=O)Nc3cc(F)c(F)cc3F)cc2)s1 [Example 575, 1-(4-(2-(2-Aminoethyl)thiazol-5-yl)phenyl)-3-(2,4,5-trifluorophenyl)urea hydrochloride]

More lines, now with the values behind:

Compound	inhibition at 1 µM [%]
Cc1oc(-c2ccccc2)nc1C(=O)Nc1ccc(-c2cnc(C3CCC(CC(=O)O)CC3)s2)cc1 (stereo not shown) [Example 372, 2-(4-(5-(4-(5-Methyl-2-phenyloxazole-4-carboxamido)phenyl)thiazol-2-yl)cyclohexyl)acetic acid]	> 50
O=C(O)CCCc1ncc(-c2ccc(NC(=O)Nc3cccc(C(F)(F)F)c3)cc2)s1 [Example 49, 4-(5-(4-(3-(3-(Trifluoromethyl)phenyl)ureido)phenyl)thiazol-2-yl)butanoic acid]	> 50
O=C(O)CCCc1nnc(-c2ccc(NC(=O)Nc3cccc(C(F)(F)F)c3)cc2)s1 [Example 278, 4-(5-(4-(3-(3-(Trifluoromethyl)phenyl)ureido)phenyl)-1,3,4-thiadiazol-2-yl)butanoic acid]	> 50
CCOc1cc(COC)cc(C(=O)Nc2ccc(-c3cnc(CCC(=O)O)s3)cc2)c1 [Example 19, 3-(5-(4-(3-Ethoxy-5-(methoxymethyl)benzamido)phenyl)thiazol-2-yl)propanoic acid]	> 50

Target: DGAT2 (Homo sapiens, UniProt Q96PD7)
Experiment: not given
Conditions: cited from earlier work

Sequence of DGAT2 (Q96PD7 whole entry, species assumed): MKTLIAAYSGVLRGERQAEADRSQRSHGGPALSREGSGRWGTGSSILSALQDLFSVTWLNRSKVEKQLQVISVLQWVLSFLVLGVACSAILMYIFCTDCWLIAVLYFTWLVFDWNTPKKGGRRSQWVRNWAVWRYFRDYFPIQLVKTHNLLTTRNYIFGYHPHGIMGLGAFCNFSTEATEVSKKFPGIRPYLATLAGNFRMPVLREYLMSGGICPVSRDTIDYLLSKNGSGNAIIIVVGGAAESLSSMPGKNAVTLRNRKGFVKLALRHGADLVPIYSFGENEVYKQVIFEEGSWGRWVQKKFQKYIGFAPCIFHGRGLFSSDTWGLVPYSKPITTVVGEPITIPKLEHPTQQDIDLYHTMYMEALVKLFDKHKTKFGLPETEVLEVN

Compound	activity against DGAT2
CC(C)C(NC(=O)c1ccc(-c2ccc(Nc3nc4ccc(F)cc4s3)cc2)cc1)C(=O)O (stereo not shown) [XP620, 2-(4′-(6-fluorobenzo[d]thiazol-2-ylamino)biphenyl-4-ylcarboxamido)-3-methylbutanoic acid]	no activity

Test system: DGAT1 mediated retinyl-ester formation in Caco-2 cells
Experiment: not given
Conditions: cited from earlier work

Compound	block of DGAT1 mediated retinyl-ester formation
CC(C)C(NC(=O)c1ccc(-c2ccc(Nc3nc4ccc(F)cc4s3)cc2)cc1)C(=O)O (stereo not shown) [XP620, 2-(4′-(6-fluorobenzo[d]thiazol-2-ylamino)biphenyl-4-ylcarboxamido)-3-methylbutanoic acid]	able to block
